Source: US20130316006A1, “PARTICLES, COMPOSITIONS AND METHODS FOR OPHTHALMIC AND/OR OTHER APPLICATIONS” (Kala Pharmaceuticals, Inc., priority 2012, published 2013)
One block for each molecule: values may come before it.

Key:
[1] = Chemical stability of LE formulations to 25 kGy gamma irradiation (degradant concentrations); type: physicochemical
Protocol: Gamma irradiation of a formulation can cause chemical degradation and free radical generation and is a concern especially in aqueous formulations. LE is a soft steroid designed to metabolize via the hydrolytic or enzymatic cleavage of two ester bonds into PJ-91 and PJ-90. […] The concentrations of the degradants were measured immediately after being subjected to gamma irradiation (“Gamma irradiated initial”) and 4 weeks after being subjected to gamma irradiation (“gamma irradiated after 4 weeks”) using a Cobalt 60 gamma irradiation source at a dose of 25 kGy. […] [table]

[2] = physchem; conditions: 25 °C, water
[3] = tested on: VEGF; test: Rabbit VEGF-challenge model, leakage by fluorescein angiography; type: in vivo, Dutch belted rabbits; conditions: axitinib-MPP 5%, 50 μL every 4 hours days 1-6; Avastin one intravitreal injection day 1; VEGF day 3; angiography day 6
Source text: On day 3, the rabbits received an intravitreal injection of VEGF. On day 6, the rabbits were accessed for leakage via fluorescein angiography.
In this model, Dutch belted rabbits were given an intravitreal injection of VEGF to stimulate vascular growth. Fluorescein angiography was used to determine the degree to which the rabbits developed abnormal vascular and leakage.

- Amount of tetradeca when LE is gamma-irradiated [1]: above 1%
Molecule: CCOC(=O)O[C@]1(C(=O)OCCl)CC[C@H]2[C@@H]3CCC4=CC(=O)C=C[C@]4(C)[C@H]3[C@@H](O)C[C@@]21C [LE, loteprednol etabonate]

- solubility [2]: ~150 µg/mL
Molecule: Nc1c(CC(=O)O)cccc1C(=O)c1ccc(Br)cc1 [bromfenac calcium]

Molecule: Avastin®: bevacizumab; positive control, one intravitreal injection
- Vessel growth and vascular leakage after intravitreal VEGF [3]: no change in retinal vasculature
